Source: patent US20230310441A1, “TREATMENT FOR SCHIZOPHRENIA” (TAKEDA PHARMACEUTICAL COMPANY, priority 2020, published 2023)
“Also recorded” adds a separate entry of the source. Like-named read-outs stand apart in the source and are kept apart here.

Key:
[1] = Separate single dose oral study: half-life in rats; conditions: rat, in vivo; single dose oral administration of 5-15 mg/kg
Text: (§1) The mean t1/2z for Compound (I) reflects the prolonged half-life of Compound (I) in humans. […] In that study, the mean human half-life of Compound (I) (approximately 11 days) was substantially higher than the 2-4 hr mean half-life observed in rats and dogs.

[2] = Phase 1 FIH study Part 4: safety and tolerability (TEAEs) in patients with stable schizophrenia; format: in vivo, human
Text: Part 4 was a double-blind, weekly single dosing, parallel group design in patients with stable schizophrenia.
Participants in the placebo group received placebo on all study dosing days.
In Part 4, participants met schizophrenia criteria as defined by the Diagnostic and Statistical Manual of Mental Disorders, 5th Edition (DSM-5) by the Mini International Neuropsychiatric Interview (MINI), a Positive and Negative Syndrome Scale (PANSS) total score ≤90 and a sum of PANSS N1, N2, N3, N4, N6, G7 and G16≥15 at screening and baseline. In addition, participants had to be on a stable dose of antipsychotic medication for at least two months.
Safety measurements used in the phase 1 study included treatment-emergent adverse events (TEAEs), physical examinations, weight, height, BMI, vital signs, clinical laboratory evaluations, pregnancy monitoring, and ECG procedures.
Participants experiencing two or more different TEAEs were counted only once. Frequent TEAEs were defined as adverse events that occurred in at least two participants in any treatment. Participants were evaluated with respect to mood and alertness (BL-VAS) and suicidality (C-SSRS).

[3] = Separate single dose oral study: half-life in humans; conditions: human, in vivo; single dose oral administration
Text: as §1

[4] = Phase 1 FIH study: plasma pharmacokinetics in healthy participants; format: in vivo, human; conditions: for Tmax / Cmax / AUC(0-t) / AUC / Vd/F: human, plasma; for Vd/F: read-out: Vz/F (mean)
Method: Part 1 was a double-blind, SRD study in healthy adults, utilizing an alternate panel design (cohorts 1, 2) and sequential panel design (cohorts 3-5). Cohorts 1 and 2 were part of a two-period, alternating-panel, double-blind study of Compound (I) administered as an oral suspension (5 mg, 10 mg, 20 mg, or 40 mg) or matched placebo, with a washout period of at least 7 days between treatment periods. Cohorts 3-5 were part of a sequential-panel, double-blind study to evaluate the SRDs of Compound (I) (80, 120, or 160 mg, respectively) or matched placebo. Although planned, all subsequent doses after the dose of 80 mg were determined based on emerging safety, tolerability, and PK data from the preceding cohorts.
In Part 2, participants received either placebo on all dosing days or a loading dose of Compound (I) on Day 1 and a maintenance dose of half the initial dose on Days 8, 15 and 22, administered as an oral suspension. Baseline measurements were obtained on Day −2, and study-specific measurements were obtained following oral dose administrations on Days 1, 8, 15, and 22.
Part 3 was a randomized, open-label, single-dose, parallel design study to evaluate the bioavailability of a Compound (I) tablet formulation relative to a Compound (I) oral suspension formulation and the effect of food on the PK in healthy participants. The immediate release tablet contained mannitol, microcrystalline cellulose, and other commonly used excipients. Participants were randomized 1:1 to receive a single 40 mg dose of Compound (I) as a tablet after either 10 h overnight fast, or 30 min after beginning ingestion of a high-fat, high-calorie breakfast.
Participants were required to remain in the study unit for an additional 48 h post-dose for safety and PK assessments with follow-up visits on Day 4-5 and on Day 17-21. Blood samples were collected over 96 h post-dose to measure the plasma concentrations of Compound (I).
Plasma and urine concentrations of Compound (I) and urine concentrations of cortisol and 6β-hydroxycortisol were measured by high performance liquid chromatography with tandem mass spectrometry. One 4 mL blood sample was collected per scheduled assessment. For participants receiving placebo, blood samples were analyzed only at pre-dose and around the time Cmax occurred (as emerging from the measurements of the first dose group) to ensure that no additional participants could have been on active treatment. Serial urine samples were collected for Part 1 cohorts 1-5 and Part 2 cohorts 1-4. Urine samples for participants receiving placebo were not analyzed. Urine samples were collected for the determination of cortisol and 6β-hydroxycortisol for Part 2 cohorts 1-4 and for all patients in Part 4. Samples for participants randomized to placebo were analyzed for these parameters.
Pharmacokinetic parameters were determined from the concentration-time profiles for all evaluable participants. Actual sampling times were used in all computations. pharmacokinetic parameters were calculated using non-compartmental analysis using Phoenix WinNonLin v8.0 or SAS v 9.4.

[5] = Part 4 MRD, 160/80 mg, N = 16, participants (percent)
[6] = Part 3, single oral 40 mg tablet
[7] = healthy, oral, 40/20 mg, Day 22, N 6
[8] = healthy, oral, 80/40 mg, Day 22, N 6
[9] = healthy, oral, 120/60 mg, Day 22, N 6
[10] = healthy, oral, 160/80 mg, Day 22, N 6
[11] = po, healthy, oral, 40/20 mg, Day 22, N 6
[12] = po, healthy, oral, 80/40 mg, Day 22, N 6
[13] = po, healthy, oral, 120/60 mg, Day 22, N 6
[14] = po, healthy, oral, 160/80 mg, Day 22, N 6

With `C[C@H](NC(=O)Cn1nnc2ccccc2c1=O)c1ccc(OC(F)(F)F)cc1` [Compound (I), (S)-2-(4-oxobenzo[d][1,2,3]triazin-3(4H)-yl)-N-(1-(4-(trifluoromethoxy)phenyl)ethyl)acetamide] the half-life [1] was 2 to 4 h, the TEAE intensity ([2]; Part 4 (MRD)) was “All TEAEs were mild” and the “frequency of TEAEs related to the study drug” value ([2]; Part 4 (MRD), patients with schizophrenia who received Compound (I)) was 56.3%. For the same molecule, the “Any TEAE” value [2, 5] was 9 (56.3), the “TEAE Mild” value [2, 5] was 9 (56.3) and the “TEAE Related” value [2, 5] was 9 (56.3). For the same molecule, the half-life [3] was ~264 h, the “mean t1/2z” value ([4]; Part 1 SRD, 20-160 mg dose range) was 210 to 296 h and the “mean t1/2z at steady state” value ([4]; Part 2 MRD) was 170 to 302 h. The “dose proportionality of systemic exposure at steady state” value ([4]; Part 2 MRD, Day 22) was “increased approximately dose proportionally”, the “ratio for AUC96, tablet under fasted and fed conditions” value [4, 6] was ~0.942 and the “ratio for Cmax, tablet under fasted and fed conditions” value [4, 6] was “approximately 0.841”. For the same molecule, the “food effect on systemic exposure” value ([4]; Part 3, tablet, fasted vs high-fat, high-calorie meal) was “no meaningful food effect on systemic exposure; also recorded: minimal food effect”, the “steady-state mean t1/2z” value ([4]; healthy participants (comparison for Part 4)) was 271 h and the “CL/F (mean)” value [4, 7] was 334.6 mL/h. The “Cav,ss (mean)” value [4, 7] was 393.8 ng/mL, the “Ctrough (mean)” value [4, 7] was 274.2 ng/mL and the “t1/2z (mean)” value [4, 7] was 299.5 h. The “CL/F (mean)” value [4, 8] was 281.9 mL/h, the “Cav,ss (mean)” value [4, 8] was 889.3 ng/mL and the “Ctrough (mean)” value [4, 8] was 621.3 ng/mL. The “t1/2z (mean)” value [4, 8] was 301.7 h, the “CL/F (mean)” value [4, 9] was 299.1 mL/h and the “Cav,ss (mean)” value [4, 9] was 1206.6 ng/mL. For the same molecule, the “Ctrough (mean)” value [4, 9] was 862.5 ng/mL, the “t1/2z (mean)” value [4, 9] was 169.7 h and the “CL/F (mean)” value [4, 10] was 284.6 mL/h. For the same molecule, the “Cav,ss (mean)” value [4, 10] was 1751.1 ng/mL, the “Ctrough (mean)” value [4, 10] was 1209.0 ng/mL and the “t1/2z (mean)” value [4, 10] was 270.8 h. The “saturation of plasma PK” value ([4]; highest dose level tested) was “Saturation of plasma PK was observed at 160 mg”, the Tmax ([4]; oral, 40 mg, Part 3, tablet formulation, fasted and fed states, read-out: median tmax) was 2 h and the Tmax ([4]; oral, 120 mg, Part 1 SRD, 120 mg (secondary peak in some participants), read-out: median tmax) was 13 h. For the same molecule, the Tmax ([4]; oral, 160 mg, Part 1 SRD, 160 mg (secondary peak in some participants), read-out: median tmax) was 13.5 h, the Tmax ([4]; oral, Part 1 SRD, dose range 5-80 mg, read-out: median tmax) was 0.99 to 3 h and the Cmax ([4]; oral, Part 2 MRD, 40/20 mg, up to 168 h post-dose, read-out: Mean Cmax (SD)) was 550 ng/mL. It also gave a Cmax ([4]; oral, Part 2 MRD, 80/40 mg, up to 168 h post-dose, read-out: Mean Cmax (SD)) of 880 ng/mL, a Cmax ([4]; oral, Part 2 MRD, 120/60 mg, up to 168 h post-dose, read-out: Mean Cmax (SD)) of 1260 ng/mL and a Cmax ([4]; oral, Part 2 MRD, 160/80 mg, up to 168 h post-dose, read-out: Mean Cmax (SD)) of 1760 ng/mL. For the same molecule, the Tmax ([4]; oral, Part 2 MRD, read-out: median tmax) was 1.75 to 3 h, the Tmax ([4]; oral, healthy participants (comparison for Part 4), read-out: median tmax) was 3 h and the Cmax ([4]; po, 5 mg, Part 1 SRD, Cohort 1, 5 mg oral suspension, fasted, up to 96 h post-dose, read-out: Mean Cmax (SD)) was 140 ng/mL. It also gave a Cmax ([4]; po, 10 mg, Part 1 SRD, Cohort 2, 10 mg oral suspension, fasted, up to 96 h post-dose, read-out: Mean Cmax (SD)) of 193 ng/mL, a Cmax ([4]; po, 80 mg, Part 1 SRD, Cohort 3, 80 mg oral suspension, fasted, up to 168 h post-dose, read-out: Mean Cmax (SD)) of 910 ng/mL and a Cmax ([4]; po, 120 mg, Part 1 SRD, Cohort 4, 120 mg oral suspension, fasted, up to 168 h post-dose, read-out: Mean Cmax (SD)) of 1200 ng/mL. It also gave a Cmax ([4]; po, 160 mg, Part 1 SRD, Cohort 5, 160 mg oral suspension, fasted, up to 168 h post-dose, read-out: Mean Cmax (SD)) of 1120 ng/mL, an AUC(0-t) [4, 11] of 191 µg·h/mL and an AUC ([4]; po, healthy, oral, 40/20 mg, Day 22, N 6, read-out: AUC24 (mean)) of 12 µg·h/mL. It also gave an AUC ([4]; po, healthy, oral, 40/20 mg, Day 22, N 6, read-out: AUC96 (mean)) of 42.2 µg·h/mL, an AUC ([4]; po, healthy, oral, 40/20 mg, Day 22, N 6, read-out: AUCτ (mean)) of 66.2 µg·h/mL and a Cmax ([4]; po, healthy, oral, 40/20 mg, Day 22, N 6, read-out: Cmax (mean)) of 698 ng/mL. It also gave a Vd/F [4, 11] of 112 L, a Tmax ([4]; po, healthy, oral, 40/20 mg, Day 22, N 6, read-out: tmax (median)) of 1.75 h and an AUC(0-t) [4, 12] of 421 µg·h/mL. It also gave an AUC ([4]; po, healthy, oral, 80/40 mg, Day 22, N 6, read-out: AUC24 (mean)) of 24.4 µg·h/mL, an AUC ([4]; po, healthy, oral, 80/40 mg, Day 22, N 6, read-out: AUC96 (mean)) of 92.7 µg·h/mL and an AUC ([4]; po, healthy, oral, 80/40 mg, Day 22, N 6, read-out: AUCτ (mean)) of 149 µg·h/mL. The Cmax ([4]; po, healthy, oral, 80/40 mg, Day 22, N 6, read-out: Cmax (mean)) was 1250 ng/mL, the Vd/F [4, 12] was 123 L and the Tmax ([4]; po, healthy, oral, 80/40 mg, Day 22, N 6, read-out: tmax (median)) was 2 h. It also gave an AUC(0-t) [4, 13] of 407 µg·h/mL, an AUC ([4]; po, healthy, oral, 120/60 mg, Day 22, N 6, read-out: AUC24 (mean)) of 35.9 µg·h/mL and an AUC ([4]; po, healthy, oral, 120/60 mg, Day 22, N 6, read-out: AUC96 (mean)) of 134 µg·h/mL. It also gave an AUC ([4]; po, healthy, oral, 120/60 mg, Day 22, N 6, read-out: AUCτ (mean)) of 203 µg·h/mL, a Cmax ([4]; po, healthy, oral, 120/60 mg, Day 22, N 6, read-out: Cmax (mean)) of 1740 ng/mL and a Vd/F [4, 13] of 73 L. It also gave a Tmax ([4]; po, healthy, oral, 120/60 mg, Day 22, N 6, read-out: tmax (median)) of 3 h, an AUC(0-t) [4, 14] of 841 µg·h/mL and an AUC ([4]; po, healthy, oral, 160/80 mg, Day 22, N 6, read-out: AUC24 (mean)) of 47.4 µg·h/mL. For the same molecule, the AUC ([4]; po, healthy, oral, 160/80 mg, Day 22, N 6, read-out: AUC96 (mean)) was 181 µg·h/mL, the AUC ([4]; po, healthy, oral, 160/80 mg, Day 22, N 6, read-out: AUCτ (mean)) was 294 µg·h/mL and the Cmax ([4]; po, healthy, oral, 160/80 mg, Day 22, N 6, read-out: Cmax (mean)) was 2410 ng/mL. It also gave a Vd/F [4, 14] of 103 L, a Tmax ([4]; po, healthy, oral, 160/80 mg, Day 22, N 6, read-out: tmax (median)) of 3 h and a Tmax ([4]; po, oral suspension (comparison for Part 3), read-out: median tmax) of 1.82 h. For the same molecule, the Tmax ([4]; po, single and repeated oral administration, healthy and schizophrenia patients, read-out: tmax) was 0.99 to 3 h, the absorption ([4]; single and repeated oral administration, healthy volunteers and patients with stable schizophrenia) was “rapidly absorbed” and the “dose proportionality of Cmax and AUC” value ([4]; single oral doses 5-160 mg, healthy) was “increased less than dose proportionally”.
